Results on four compounds are retold here after patent publication US12594296B2, “Methods for treatment or prevention of damage resulting from radiation, trauma or shock” (priority 2012, dated 2026).

For one assay, the system named is Clostridium perfringens. The class given is in vivo, chicks.
In the next assay the test system is A431 epidermal cells. Kind of assay: Scratch healing of confluent A431 epidermal cell monolayer. The class given is cell-based. To be noted: serum free DMEM; 24, 48, 72 or 96 hours. The protocol: A431 epidermal cells were seeded into 4-well chamber slides in DMEM plus 10% FBS at a density to be confluent the next day (5×10^5/well (˜1.8 cm^2)). The following day, a scratch was made across the confluent monolayer using a sterile 10 μl tip. The medium was aspirated and the wells rinsed with DMEM to remove floating debris. Serum free DMEM was added to all wells, plus or minus PAAG (18 kD, 25% functionalization) or EGF as a positive control. Cells were treated for 24, 48, 72 or 96 hours. Cells were fixed with paraformaldehyde at the indicated times and stained with hematoxylin for better visualization. A representative scratch at time 0 is duplicated at the top of each column of treatments for comparison depicted in FIG. 13.

Entries after “also recorded” stand apart in the source; their conditions may differ. Like-named read-outs stand apart in the source and are kept apart here. Bridge positions count the residues as written; N and C are the ends. Square brackets hold non-standard residues; d marks the D form. Peptide text beside a SMILES is read from it. * marks the point of attachment. Ileψ(thiazoline)Cys = CC[C@H](C)[C@H](N)C1=N[C@H](C(=O)*)CS1; dOrn = NCCC[C@@H](N)C(=O)O

On to `CC[C@H](C)[C@H](N)C1=N[C@H](C(=O)N[C@@H](CC(C)C)C(=O)N[C@H](CCC(=O)O)C(=O)N[C@H](C(=O)N[C@H]2CCCCNC(=O)[C@H](CC(N)=O)NC(=O)[C@@H](CC(=O)O)NC(=O)[C@H](Cc3cnc[nH]3)NC(=O)[C@@H](Cc3ccccc3)NC(=O)[C@H]([C@@H](C)CC)NC(=O)[C@@H](CCCN)NC2=O)[C@@H](C)CC)CS1` [Bacitracin, reference compound] ({Ileψ(thiazoline)Cys}-L[dE]IK[dOrn]I[dF]H[dD]N; lactam 4-C), for which the “mortality relative to control” value in the assay on Clostridium perfringens (ad libitum in water, PAAG at 100 ppm) is listed as “reduced mortality with statistical significance; also recorded: reduced morality with statistical significance”.

In the case of “EGF: EGF as a positive control [reference compound]”, the healing of scratches result with A431 epidermal cells was “faster than control”.

On to “poly (acetyl, arginyl) glucosamine [PAAG (18 kD, 25% functionalization)]”, for which, in the assay with A431 epidermal cells, the healing of scratches entry is “faster than control”.

Take “poly (acetyl, arginyl) glucosamine [PAAG (22 kD, 36% functionalization)]”: in the assay with Clostridium perfringens (in vivo), the “mortality relative to control” value is reported as “reduced mortality with statistical significance; also recorded: reduced morality with statistical significance” and the treated animals died was 15%.
